SMILES strings stand for the structures.

By IC50 is commonly meant the point on the concentration scale where inhibition reaches its midpoint.

One test has as its target T1, HDAC6 (Homo sapiens, UniProt Q9UBN7).
T1 construct: purchased Reaction Biology corporation (contract assay)
T1 sequence (Q9UBN7 1-1215): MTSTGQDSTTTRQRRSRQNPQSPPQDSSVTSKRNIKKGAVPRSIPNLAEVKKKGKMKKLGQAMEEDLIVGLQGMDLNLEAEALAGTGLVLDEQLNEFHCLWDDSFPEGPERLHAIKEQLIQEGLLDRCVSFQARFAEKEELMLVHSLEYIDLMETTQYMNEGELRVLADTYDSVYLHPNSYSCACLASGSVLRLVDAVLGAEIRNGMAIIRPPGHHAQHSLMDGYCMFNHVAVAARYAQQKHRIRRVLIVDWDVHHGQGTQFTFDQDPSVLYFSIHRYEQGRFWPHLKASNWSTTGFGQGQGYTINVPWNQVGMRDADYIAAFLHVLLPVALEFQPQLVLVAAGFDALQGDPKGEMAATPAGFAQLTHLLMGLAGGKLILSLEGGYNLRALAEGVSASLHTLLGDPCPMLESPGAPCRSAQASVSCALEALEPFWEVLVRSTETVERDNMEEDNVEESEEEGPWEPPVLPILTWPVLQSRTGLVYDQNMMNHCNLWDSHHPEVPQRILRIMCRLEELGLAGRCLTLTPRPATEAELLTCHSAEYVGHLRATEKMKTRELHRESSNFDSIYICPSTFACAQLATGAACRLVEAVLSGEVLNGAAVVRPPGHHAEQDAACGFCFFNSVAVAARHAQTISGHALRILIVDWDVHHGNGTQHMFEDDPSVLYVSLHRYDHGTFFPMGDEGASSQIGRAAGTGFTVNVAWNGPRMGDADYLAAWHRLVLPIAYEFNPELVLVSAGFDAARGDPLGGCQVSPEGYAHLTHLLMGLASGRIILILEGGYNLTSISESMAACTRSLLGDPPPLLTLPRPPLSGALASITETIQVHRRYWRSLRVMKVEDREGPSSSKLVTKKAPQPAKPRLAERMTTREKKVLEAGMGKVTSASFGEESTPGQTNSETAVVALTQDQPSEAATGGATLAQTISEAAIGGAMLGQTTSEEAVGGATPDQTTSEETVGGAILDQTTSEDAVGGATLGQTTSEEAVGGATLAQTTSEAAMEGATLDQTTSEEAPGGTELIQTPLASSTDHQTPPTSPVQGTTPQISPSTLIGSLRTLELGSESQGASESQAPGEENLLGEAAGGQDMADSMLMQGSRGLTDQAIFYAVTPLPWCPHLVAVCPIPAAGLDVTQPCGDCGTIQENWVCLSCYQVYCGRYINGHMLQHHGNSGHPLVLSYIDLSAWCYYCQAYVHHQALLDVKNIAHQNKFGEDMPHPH
As to the kind of experiment: HDAC6 enzyme inhibition assay (single point and 10-dose IC50, Reaction Biology). It counts as biochemical. As to the method: (§1) Against HDAC6, inhibition was determined using 0.01 µM of the inhibitor.
All IC50 measurements we performed by Reaction Biology corporation. Compounds were tested in
dilution starting at 1 uM. […]
(RHK(Ac)K(Ac)AMC). IC50 values were calculated using the GraphPad Prism 4 program based on a
sigmoidal dose-response equation. […]

A further test concerns the target T2, HDAC11 (Homo sapiens, UniProt Q96DB2).
T2 construct: purchased Reaction Biology corporation (contract assay)
T2 sequence (Q96DB2 1-347): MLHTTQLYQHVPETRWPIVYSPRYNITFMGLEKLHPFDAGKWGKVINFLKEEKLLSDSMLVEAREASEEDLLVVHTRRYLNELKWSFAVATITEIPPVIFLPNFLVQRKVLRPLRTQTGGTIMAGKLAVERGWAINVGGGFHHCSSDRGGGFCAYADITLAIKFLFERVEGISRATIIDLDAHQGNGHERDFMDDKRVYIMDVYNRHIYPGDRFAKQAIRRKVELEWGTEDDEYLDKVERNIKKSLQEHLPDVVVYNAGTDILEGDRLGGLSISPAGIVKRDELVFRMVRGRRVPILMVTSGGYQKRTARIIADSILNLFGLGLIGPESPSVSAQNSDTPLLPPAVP
In words: HDAC11 enzyme inhibition assay (single point and 10-dose IC50, Reaction Biology). It is filed as biochemical. As to the method:
as §1
All IC50 measurements we performed by Reaction Biology corporation. Compounds were tested in […]
dilution starting at 1 uM.
Substrate for HDAC11: 50 uM Fluorogenic HDAC Class2a Substrate […]
(Trifluoroacetyl Lysine).
(RHK(Ac)K(Ac)AMC). IC50 values were calculated using the GraphPad Prism 4 program based on a sigmoidal dose-response equation. […]

The mark [1] stands for this setting: average of two independent measurements.

For `O=C(CCCCCN1C(=O)c2cccc3cc(NC(=O)c4ccccc4)cc(c23)C1=O)NO` [KNH019], the IC50 was found to be 1 ± 0.005 nM on HDAC6 (setting [1]) and 290 ± 35 nM against HDAC11 (setting [1]). Moreover, on HDAC6 (single point, inhibitor 0.01 μM, average of two measurements, ±2%), the “HDAC6 average enzyme isoform activity (percentage of full enzyme activity)” value came to 20.4%. For the same compound, the “Selectivity factor (SF) HDAC11 against HDAC6” value on HDAC11 (selectivity for HDAC6 over HDAC11) is recorded as 290. In addition, the “HDAC11 average enzyme isoform activity (percentage of full enzyme activity)” value on HDAC11 (single point, inhibitor 1.0 μM, average of two measurements, ±2%) amounted to 67.5%.
